Data reported in patent publication US6914045B2, “Glycopeptide antibiotics” (Wyeth Holdings Corporation, priority 2001, dated 2005).

What was measured:
Test in all cases: in vitro antibacterial evaluation, MIC by broth dilution
Assay type in all cases: cell-based
Enterococcus sp. = settings: broth dilution, 18 hours at 35° C.
Protocol: (§1) Methods for in vitro Antibacterial Evaluation (Table 1)
(§2) The minimum inhibitory concentration (MIC), the lowest concentration of the antibiotic which inhibits growth of the test organism, is determined by the broth dilution method using Muller-Hinton II […] (Baltimore Biological Laboratories) following the recommendations of the National Committee for Clinical Laboratory Standards [Methods for dilution antimicrobial susceptibility tests for bacteria that grow aerobically, approved standard M7-A2, National Committee for Clinical Laboratory Standards, Villanova, Pa.].
(§3) An inoculum level of 5×10^5 CFU/mL, and a range of antibiotic concentrations (64-0.06 μg/mL) is used. […] The test organisms include a spectrum of Gram-positive bacteria comprised of Staphylococcus sp., Streptococcus sp. and Enterococcus sp. These organisms include recent clinical isolates that are resistant to methicillin, penicillin and/or vancomycin.

Streptococcus sp. = settings: broth dilution, 18 hours at 35° C.
Protocol: as §1, §2, §3

Staphylococcus sp. = settings: broth dilution, 18 hours at 35° C.; for MIC Staphylococcus aureus (ATCC 29213): strain ATCC 29213; for MIC Staphylococcus aureus (GC 1131): strain GC 1131; for MIC Staphylococcus aureus (GC 3051): strain GC 3051; for MIC Staphylococcus aureus (GC 3053): strain GC 3053; for MIC Staphylococcus aureus (GC 4541): strain GC 4541; for MIC Staphylococcus aureus (GC 4542): strain GC 4542; for MIC Staphylococcus aureus-SMITH (GC 4543): strain GC 4543; for MIC Staphylococcus aureus (GC 4544): strain GC 4544; for MIC Staphylococcus aureus (GC 4545): strain GC 4545; for MIC Staphylococcus haemolyticus (GC 4546): strain GC 4546; for MIC Coagulase Negative Staphylococcus (GC 4547): strain GC 4547; for MIC Coagulase Negative Staphylococcus (GC 4548): strain GC 4548; for MIC Coagulase Negative Staphylococcus (GC 4549): strain GC 4549; for MIC Coagulase Negative Staphylococcus (GC 4551): strain GC 4551
Protocol: as §1, §2, §3

Escherichia coli = settings: 18 hours at 35° C.

N=C1NCC(C(O)C2NC(=O)C(CC3CCC(OC4OC(CO)C(OC5OC6COC7(OC6C(O)C5O)C5CC6CC(C5)CC7C6)C(O)C4O)CC3)NC(=O)C(CC3CCCCC3)NC(=O)CNC(=O)C(CO)NC(=O)C(C(O)C3CNC(=N)N3C3OC(CO)C(O)C(O)C3O)NC2=O)N1 (single isomer, unassigned) [Example 223]
>64 µg/mL: MIC Enterococcus faecalis (ATCC 29212) (Enterococcus sp.) | MIC Enterococcus faecalis (GC 2242) (Enterococcus sp.) | MIC Enterococcus faecalis (GC 2691) (Enterococcus sp.) | MIC Enterococcus faecalis (GC 3059) (Enterococcus sp.) | MIC Enterococcus faecalis (GC 4552) (Enterococcus sp.) | MIC Enterococcus faecalis (GC 4554) (Enterococcus sp.) | MIC Enterococcus faecalis (GC 6189) (Enterococcus sp.) | MIC Enterococcus faecium (GC 2243) (Enterococcus sp.) | MIC Enterococcus faecium (GC 4556) (Enterococcus sp.) | MIC Enterococcus faecalis (ATCC 29212) (Enterococcus sp.; inoculum 5×10^5 CFU/mL, strain ATCC 29212) | MIC Enterococcus faecalis (GC 2242) (Enterococcus sp.; inoculum 5×10^5 CFU/mL, strain GC 2242) | MIC Enterococcus faecium (GC 2243) (Enterococcus sp.; inoculum 5×10^5 CFU/mL, strain GC 2243) | MIC Enterococcus faecalis (GC 2691) (Enterococcus sp.; inoculum 5×10^5 CFU/mL, strain GC 2691) | MIC Enterococcus faecalis (GC 3059) (Enterococcus sp.; inoculum 5×10^5 CFU/mL, strain GC 3059) | MIC Enterococcus faecalis (GC 4552) (Enterococcus sp.; inoculum 5×10^5 CFU/mL, strain GC 4552) | MIC Enterococcus faecalis (GC 4554) (Enterococcus sp.; inoculum 5×10^5 CFU/mL, strain GC 4554) | MIC Enterococcus faecium (GC 4556) (Enterococcus sp.; inoculum 5×10^5 CFU/mL, strain GC 4556) | MIC Enterococcus faecalis (GC 6189) (Enterococcus sp.; inoculum 5×10^5 CFU/mL, strain GC 6189) | MIC Streptococcus agalactiae (GC 4564) (Streptococcus sp.) | MIC Streptococcus pneumoniae (GC 4565) (Streptococcus sp.) | MIC Streptococcus agalactiae (GC 4564) (Streptococcus sp.; inoculum 5×10^5 CFU/mL, strain GC 4564) | MIC Streptococcus pneumoniae (GC 4565) (Streptococcus sp.; inoculum 5×10^5 CFU/mL, strain GC 4565) | MIC Staphylococcus aureus (ATCC 29213) (Staphylococcus sp.) | MIC Staphylococcus aureus (GC 1131) (Staphylococcus sp.) | MIC Staphylococcus aureus (GC 3053) (Staphylococcus sp.) | MIC Escherichia coli (ATCC 25922) (Escherichia coli) | MIC Escherichia coli (GC 4559) (Escherichia coli)
32 µg/mL: MIC Streptococcus pneumoniae (GC 1894) (Streptococcus sp.) | MIC Streptococcus pneumoniae (GC 1894) (Streptococcus sp.; inoculum 5×10^5 CFU/mL, strain GC 1894) | MIC Escherichia coli (GC 4560) (Escherichia coli)
64 µg/mL: MIC Enterococcus avium (GC 4558) (Enterococcus sp.) | MIC Enterococcus faecalis (GC 4553) (Enterococcus sp.) | MIC Enterococcus faecium (GC 4557) (Enterococcus sp.) | MIC Enterococcus faecalis (GC 4553) (Enterococcus sp.; inoculum 5×10^5 CFU/mL, strain GC 4553) | MIC Enterococcus faecium (GC 4557) (Enterococcus sp.; inoculum 5×10^5 CFU/mL, strain GC 4557) | MIC Enterococcus avium (GC 4558) (Enterococcus sp.; inoculum 5×10^5 CFU/mL, strain GC 4558) | MIC Streptococcus pneumoniae (ATCC 6301) (Streptococcus sp.) | MIC Streptococcus pyogenes (GC 4563) (Streptococcus sp.) | MIC Streptococcus pneumoniae (ATCC 6301) (Streptococcus sp.; inoculum 5×10^5 CFU/mL, strain ATCC 6301) | MIC Streptococcus pyogenes (GC 4563) (Streptococcus sp.; inoculum 5×10^5 CFU/mL, strain GC 4563) | MIC Staphylococcus aureus (GC 3051) (Staphylococcus sp.) | MIC Staphylococcus aureus (GC 4541) (Staphylococcus sp.) | MIC Staphylococcus aureus (GC 4542) (Staphylococcus sp.) | MIC Staphylococcus aureus-SMITH (GC 4543) (Staphylococcus sp.) | MIC Staphylococcus aureus (GC 4544) (Staphylococcus sp.) | MIC Staphylococcus aureus (GC 4545) (Staphylococcus sp.) | MIC Staphylococcus haemolyticus (GC 4546) (Staphylococcus sp.) | MIC Coagulase Negative Staphylococcus (GC 4547) (Staphylococcus sp.) | MIC Coagulase Negative Staphylococcus (GC 4548) (Staphylococcus sp.) | MIC Coagulase Negative Staphylococcus (GC 4549) (Staphylococcus sp.) | MIC Coagulase Negative Staphylococcus (GC 4551) (Staphylococcus sp.)

CC(c1ccccc1)C1NC(=O)CNC(=O)C(CO)NC(=O)C(C(O)C2CNC(=N)N2C2OC(CO)C(O)C(O)C2O)NC(=O)C(C(O)C2CNC(=N)N2)NC(=O)C(Cc2ccc3oc(-c4ccc(N(C)C)cc4)nc3c2)NC1=O (stereo not drawn) [Example 29, Cyclo[3-[2-[4-(dimethylamino)phenyl]-1,3-benzoxazol-5-yl]alanyl-3-(2-iminoimidazolidin-4-yl)-seryl-3-(3-hexopyranosyl-2-iminoimidazolidin-4-yl)serylserylglycyl-β-methylphenyl-alanyl]]
4 µg/mL: MIC Staphylococcus haemolyticus (GC 4546) (Staphylococcus sp.) | MIC Coagulase Negative Staphylococcus (GC 4547) (Staphylococcus sp.) | MIC Coagulase Negative Staphylococcus (GC 4548) (Staphylococcus sp.) | MIC Coagulase Negative Staphylococcus (GC 6257) (Staphylococcus sp.; strain GC 6257) | MIC Escherichia coli (GC 4560) (Escherichia coli; strain GC 4560, broth dilution)
16 µg/mL: MIC Enterococcus faecium (GC 2243) (Enterococcus sp.; strain GC 2243) | MIC Enterococcus faecalis (GC 4553) (Enterococcus sp.; strain GC 4553) | MIC Enterococcus avium (GC 4558) (Enterococcus sp.; strain GC 4558) | MIC Streptococcus pyogenes (GC 4563) (Streptococcus sp.; strain GC 4563) | MIC Escherichia coli (ATCC 25922) (Escherichia coli; strain ATCC 25922, broth dilution) | MIC Escherichia coli (GC 4559) (Escherichia coli; strain GC 4559, broth dilution)
8 µg/mL: MIC Enterococcus faecium (GC 4557) (Enterococcus sp.; strain GC 4557) | MIC Staphylococcus aureus (ATCC 29213) (Staphylococcus sp.) | MIC Staphylococcus aureus (GC 1131) (Staphylococcus sp.) | MIC Staphylococcus aureus (GC 3051) (Staphylococcus sp.) | MIC Staphylococcus aureus (GC 3053) (Staphylococcus sp.) | MIC Staphylococcus aureus (GC 4541) (Staphylococcus sp.) | MIC Staphylococcus aureus (GC 4542) (Staphylococcus sp.) | MIC Staphylococcus aureus-SMITH (GC 4543) (Staphylococcus sp.) | MIC Staphylococcus aureus (GC 4544) (Staphylococcus sp.) | MIC Staphylococcus aureus (GC 4545) (Staphylococcus sp.) | MIC Coagulase Negative Staphylococcus (GC 4551) (Staphylococcus sp.)
32 µg/mL: MIC Enterococcus faecalis (ATCC 29212) (Enterococcus sp.; strain ATCC 29212) | MIC Enterococcus faecalis (GC 2242) (Enterococcus sp.; strain GC 2242) | MIC Enterococcus faecalis (GC 2691) (Enterococcus sp.; strain GC 2691) | MIC Enterococcus faecalis (GC 4554) (Enterococcus sp.; strain GC 4554) | MIC Enterococcus faecalis (GC 6189) (Enterococcus sp.; strain GC 6189) | MIC Streptococcus pneumoniae (ATCC 6301) (Streptococcus sp.; strain ATCC 6301) | MIC Streptococcus pneumoniae (GC 1894) (Streptococcus sp.; strain GC 1894) | MIC Streptococcus agalactiae (GC 4564) (Streptococcus sp.; strain GC 4564) | MIC Streptococcus pneumoniae (GC 4565) (Streptococcus sp.; strain GC 4565)
64 µg/mL: MIC Enterococcus faecalis (GC 3059) (Enterococcus sp.; strain GC 3059) | MIC Enterococcus faecalis (GC 4552) (Enterococcus sp.; strain GC 4552) | MIC Enterococcus faecium (GC 4556) (Enterococcus sp.; strain GC 4556)
2 µg/mL: MIC Coagulase Negative Staphylococcus (GC 4549) (Staphylococcus sp.)
